Measurements taken from US11801232B2, “Targeting of ARID1A-deficient cancers by inhibiting de novo pyrimidine synthesis pathway” (YALE UNIVERSITY, priority 2019, dated 2023).
Like-named read-outs stand apart in the source and are kept apart here.

Columns and labels:
Assay in all cases: Cytotoxicity (SRB) assay with CalcuSyn combination analysis
Assay type in all cases: cell-based
[1] = system: A2780 cells; conditions: Homo sapiens, Table 4, single drug, median effect, read-out: Dm
Protocol: (§1) Cytotoxicity assay. Cells were seeded in 96-well plates, with 2000 cells in 100 μL/well, and cultured for 24 h. The cells were treated with serial dilutions of drugs or without drug for an additional 72 h. Cell number was determined using a sulforhodamine B (SRB) assay, as previously described^23. Briefly, cells were fixed with 20% trichloroacetic acid (TCA), air-dried, and stained with 0.4% SRB dissolved in 1% acetic acid. After washing, protein-bound dye was solubilized with 10 mM unbuffered Tris-base solution (pH 10.5) and detected at 510 nm using a microplate reader. Percentage of cell-growth was calculated using the following formula: % cell growth=[(Absorbance sample)/(Absorbance untreated)]×100
(§2) Using CalcuSyn software (Biosoft), dose-effect curves were generated, and drug concentrations corresponding to a 50% decrease in cell number (IC50) were determined.
Drug concentrations corresponding to a median effect (Dm) are shown for each treatment; teriflunomide concentration is shown for a combination (Combo) treatment at a 10:1 fixed molar ratio of two drugs, teriflunomide and AZD6738. […] CIwt<0.8, =0.8 to 1.2, and >1.2 indicate synergism, an additive effect, and antagonism, respectively. A CIwt value was calculated using the formula: CIwt=(ED50+2ED75+3ED90)/6. Datasets from at least three independent experiments were combined, and each table cell contains the mean value±SD.

[2] = system: ES2 cells; conditions: Homo sapiens, ES2 parental, read-out: Dm
Protocol: as §1, with “untreated)]×100 […] Datasets from at least three independent experiments were combined, and each table cell contains the mean value±SD. SCR, ES2-shScrambled. N/A, not applicable. Statistical analysis was carried out by one-way ANOVA with Bonferroni's post-hoc test, and differences were considered significant at **P<0.01 and ***P<0.001 as compared to the ES2 parental group with the same drug treatment. […] CIwt value was calculated using the formula: […] Datasets from at least three independent experiments were combined, and each table cell contains the mean value±SD. Teri, teriflunomide. SCR, ES2-shScrambled. N/A, not applicable. Statistical analysis was carried out by one-way ANOVA with Bonferroni's post-hoc test, and differences were considered significant at ***P<0.001 as compared to the ES2 parental group with the same drug treatment.” for “untreated)]×100”

[3] = system: ES2 shARID1A (a) cells; conditions: Homo sapiens, read-out: Dm
Protocol: (§3) Short Hairpin RNA (shRNA)-Mediated Knockdown and Expression of ARID1A in ovarian and endometrial carcinoma cells. shRNA lentiviral supernatants were produced using standard protocols, as previously described^8. Vectors were transfected into HEK293FT cells using X-tremeGENE 9 DNA Transfection Reagent (from Roche). Retroviral supernatants isolated at 48 h were diluted 1:1 in culture medium and used to infect ARID1A-wildtype ES2 and KLE cell lines. Stably transfected subclones were expanded using puromycin (from Dot Scientific) drug selection. For expression of ARID1A in the ARID1A-mutant HEC-1-A cell line, pCIN4-HA-ARID1A was transfected using X-tremeGENE 9 DNA Transfection Reagent (from Roche), followed by selection with G418 (from Gibco). For expression of ARID1A in the ARID1A-mutant SKOV3 and OVISE cell lines, V5/His-tagged pLenti-puro-LacZ and pLenti-puro-ARID1A were transfected using lentivirus. Lentivirus was produced using HEK293FT cells with the second-generation packaging system pSPAX2 (Addgene plasmid) and pMD2.G (Addgene plasmid). Stably transfected subclones were expanded using puromycin and blasticidin (Gibco) drug selection.
as §1, §2
(§4) Drug concentrations corresponding to a median effect (Dm) are shown for each treatment; teriflunomide concentration is shown for combination (Combo) treatment at a 10:1 fixed molar ratio of two drugs, teriflunomide and AZD6738. […] Datasets from at least three independent experiments were combined, and each table cell contains the mean value±SD. SCR, ES2-shScrambled. N/A, not applicable. Statistical analysis was carried out by one-way ANOVA with Bonferroni's post-hoc test, and differences were considered significant at **P<0.01 and ***P<0.001 as compared to the ES2 parental group with the same drug treatment.
(§5) Drug concentrations (in μM for teriflunomide, in nM for […]) corresponding to median effect (Dm) are shown for each treatment; teriflunomide concentration is shown for combination (Combo) treatment at a 200:1 fixed molar ratio of the two drugs, teriflunomide and VX-970. […] CIwt<0.8, =0.8 to 1.2, and >1.2 indicates synergism, an additive effect, and antagonism, respectively. CIwt value was calculated using the formula: CIwt=(ED50+2ED75+3ED90)/6. Datasets from at least three independent experiments were combined, and each table cell contains the mean value±SD. Teri, teriflunomide. SCR, ES2-shScrambled. N/A, not applicable. Statistical analysis was carried out by one-way ANOVA with Bonferroni's post-hoc test, and differences were considered significant at ***P<0.001 as compared to the ES2 parental group with the same drug treatment.

[4] = system: ES2-shScrambled (SCR) cells; conditions: Homo sapiens, read-out: Dm
Protocol: as §3, §1, §2, §4, §5

[5] = system: ES2 shARID1A (b) cells; conditions: Homo sapiens, read-out: Dm
Protocol: as §3, §1, §2, §4, §5

[6] = system: OVISE cells, LacZ Dox; conditions: Homo sapiens, Table 3, single drug, read-out: Dm
Protocol: as §3, §1, §2
(§6) CIwt<0.8, =0.8 to 1.2, and >1.2 indicates synergism, an additive effect, and antagonism, respectively. A CIwt value was assigned as follows: (ED50+2ED75+3ED90)/6. Datasets from at least three independent experiments were combined, and means±SD were calculated for each combination. Teri, teriflunomide. N/A, not applicable. Statistical analysis was carried out by one-way ANOVA with Bonferroni's post-hoc test, and differences were considered significant at ***P<0.001 as compared to the ARID1A restoration group induced by doxycycline with the same drug treatment.

[7] = system: ARID1A-restoration OVISE cells (ARID1A Dox); conditions: Homo sapiens, Table 3, single drug, read-out: Dm
Protocol: as §3, §1, §2, §6

[8] = system: OVISE cells, LacZ; conditions: Homo sapiens, Table 3, single drug, read-out: Dm
Protocol: as §3, §1, §2, §6

[9] = system: OVISE cells, ARID1A (not induced); conditions: Homo sapiens, Table 3, single drug, read-out: Dm
Protocol: as §3, §1, §2, §6

[10] = ES-2, Table 1, single drug, median effect
[11] = Table 1, single drug, median effect

Compound | IC50 [1] | IC50 [2, 10] | IC50 [3, 11] | IC50 [4, 11] | IC50 [5, 11] | IC50 [6] | IC50 [7] | IC50 [8] | IC50 [9] | IC50 ([2]; ES-2, Table 2, teriflunomide alone) | IC50 ([3]; Table 2, teriflunomide alone) | IC50 ([4]; Table 2, teriflunomide alone) | IC50 ([5]; Table 2, teriflunomide alone)
C[C@@H]1COCCN1c1cc(C2([S@](C)(=N)=O)CC2)nc(-c2cc[nH]c3nccc2-3)n1 [AZD6738] | 5.54 ± 1.06 µM | 1.23 ± 0.16 µM | 0.2 ± 0.01 µM | 1.18 ± 0.17 µM | 0.24 ± 0.03 µM | 0.67 ± 0.11 µM | 6.99 ± 0.34 µM | 0.7 ± 0.03 µM | 0.77 ± 0.16 µM | – | – | – | –
C/C(O)=C(\C#N)C(=O)Nc1ccc(C(F)(F)F)cc1 [Teriflunomide, teriflunomide] | 18.9 ± 1.39 µM | 26.4 ± 2.18 µM | 17.9 ± 1.32 µM | 28.2 ± 1.59 µM | 16.8 ± 0.92 µM | 19.3 ± 1.24 µM | 109 ± 3.18 µM | 18.2 ± 1.19 µM | 19.1 ± 1.07 µM | 29.1 ± 0.54 µM | 15.6 ± 1.79 µM | 26.7 ± 1.26 µM | 15.5 ± 3.11 µM
